Experimental data reported in patent US20050148523A1, “Method of treating HIV infection in atazanavir-resistant patients using a combination of atazanavir and another protease inhibitor” (priority 2003, published 2005).

Experiments:
[1] = test system: HIV-1 in treatment naive patients; assay: Clinical study AI424-034, virological outcomes and resistance; format: in vivo, human; details: study 034
Excerpt: (§1) Study Population. Viral samples (baseline and on-treatment, where available) were obtained from patients who experienced virologic failure while enrolled in studies AI424-007/041 [12] (ATV+d4T and ddI), AI424-008/044 [13, 14] (ATV+d4T and 3TC) and AI424-034 [9] (ATV or EFV in combination with ZDV and 3TC). […] In general, virologic failure specimens were selected for further resistance evaluation only if they contained >1,000 copies/mL HIV-1 RNA and there was no indication that the specimen came from a patient at a time of transient non-adherence to study drug(s). […] For non-responders, samples from week 16 (or 24) were tested. Drug adherence was determined from pill counts of returned study medications at each scheduled visit.
(§2) ATV resistance was defined as ≧2-fold decrease in ATV susceptibility from baseline, a Fold Change (FC) of ≧2.5 (relative to the Nl4-3 reference strain), or evidence of an isoleucine (Ile) to leucine (Leu) change at amino acid residue 50 (I50L). Resistance levels for NFV and EFV were also defined as a FC reaching 2.5.

[2] = test system: clinical isolates containing a D30N substitution; assay: PhenoSense phenotypic susceptibility of clinical isolates containing D30N; format: cell-based, HIV-1; details: 75 D30N containing isolates, FIG. 3
Description: (§3) Drug Susceptibility Assays. Clinical isolates were subjected to phenotypic (PhenoSense™) and genotypic (GeneSeq™) analysis by Virologic, Inc. as described elsewhere.
Comparative Studies of I50L and D30N Containing Viruses. […] Comparative studies were performed on the 18 phenotyped viruses containing an I50L and 75 clinical isolates containing a D30N substitution without evidence of cross-resistance (FC≧2.5) to other PIs.

[3] = test system: clinical isolates containing an I50L substitution (and their baseline isolates); assay: PhenoSense phenotypic susceptibility of clinical isolates from ATV-treated patients who developed I50L; format: cell-based, HIV-1
Excerpt: as §1, §3

[4] = test system: recombinant HIV-1 viruses (NL4-3, RF, LAI) in MT-2 cells; assay: MT-2 cell susceptibility assay of recombinant viruses; format: cell-based; details: all three viral strains, I50L or I50L/A71V introduced by site-directed mutagenesis
Description: Cells and Viruses. MT-2 cells, HIV-1 RF, HIV1-LAI, and the HIV-1 NL4-3 proviral clones were obtained through the AIDS Research and Reference Reagent Program, National Institutes of Health. MT-2 cells were cultured in RPMI 1640 medium supplemented with 10% fetal bovine serum, 2 mM L-glutamine, and 10 mM Hepes buffer. HIV-1 viruses were generated by transient transfection of the proviral DNA into Human Embryonic Kidney 293 cells using Lipofectamine reagents (Gibco BRL). The viruses were harvested 72 hr post-transfection, amplified in MT-2 cells, and titered in the same cells using a virus yield assay.
Recombinant HIV-1 Variants and Chimeric NL4-3 Proviral Clones. HIV-1 strains with defined substitutions in the protease gene were generated by QuikChange® site-directed mutagenesis as recommended by the manufacturer (Stratagene). Recombinant NL4-3 and LAI proviral clones containing the wild-type and mutant protease genes from RF and clinical isolates were constructed by replacing the SseI/ApaI fragment of pNL4-3 with the appropriate SseI/ApaI protease fragments.
Recombinant viruses (generated separately from those made for PhenoSense assays) were tested in an MT-2 cell susceptibility assay at Bristol Myers Squibb. MT-2 cells were infected with recombinant viruses at a multiplicity of infection (MOI) of 0.005 50% tissue culture infective doses (TCID50)/cell followed by incubation in the presence or absence of serially diluted protease inhibitors for 4 to 7 days. Virus yields were quantified using a RT assay as previously described. The results from at least four independent experiments were used to calculate the EC50.

[5] = test system: HIV-1 in treatment naive patients; assay: Clinical study AI424-008/044, virological outcomes and resistance; format: in vivo, human; details: study 008/044
Excerpt: as §1, §2

[6] = test system: HIV-1 in treatment naive patients; assay: Clinical study AI424-007/041, virological outcomes and resistance; format: in vivo, human; details: study 007/041
Excerpt: as §1, §2

Row | Compound | Virologic Failures (%) [1] | Virologic Failures, number [1] | median FC [2] | Susceptibility, Fold Change in EC50 relative to reference strain ([3]; Subject 076, Week 80) | Susceptibility, Fold Change in EC50 relative to reference strain ([3]; Subject 076, Week 92) | Susceptibility, Fold Change in EC50 relative to reference strain ([3]; Subject 100, Week 1.7) | Susceptibility, Fold Change in EC50 relative to reference strain ([3]; Subject 169, Week 0.1) | Susceptibility, Fold Change in EC50 relative to reference strain ([3]; Subject 169, Week 90) | Susceptibility, Fold Change in EC50 relative to reference strain ([3]; Subject 169, Week 102) | Subceptibility, Fold Change in EC50 relative to reference strain ([3]; Subject 169, Week 114) | Susceptibility, Fold Change in EC50 relative to reference strain ([3]; Subject 362, Week 0.1) | Susceptibility, Fold Change in EC50 relative to reference strain ([3]; Subject 362, Week 108) | percentage of baseline isolates exhibiting a FC≦0.4 ([3]; baseline isolates) | median increase in susceptibility from baseline ([3]; on emergence of I50L, n=4 to 15) | percentage of I50L isolates with susceptibility (FC) 0.4-fold or lower ([3]; relative to the reference strain) | change in susceptibility [4] | Virologic Failures (%) [5] | Virologic Failures, number [5] | Virologic Failures (%) [6] | Virologic Failures, number [6]
1 | O=C1Nc2ccc(Cl)cc2[C@@](C#CC2CC2)(C(F)(F)F)O1 [EFV, efavirenz] | 17% | 69 |  |  |  |  |  |  |  |  |  |  |  |  |  |  |  |  |  | 
2 | Cc1c(O)cccc1C(=O)N[C@@H](CSc1ccccc1)[C@H](O)CN1C[C@H]2CCCC[C@H]2C[C@H]1C(=O)NC(C)(C)C [NFV, nelfinavir] |  |  | resistance | 0.4 Fold Change | 0.6 Fold Change | 2.1 Fold Change | 1.0 Fold Change | 0.5 Fold Change | 0.5 Fold Change | 0.7 Fold Change | 2.3 Fold Change | 1.1 Fold Change | 0% | 1.6 fold | 33% | enhanced susceptibility | 30% | 27 | 23% | 18
